PubChem BioAssay (NCI)
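Assay format: 96-well plates, 48-hour exposure. The concentration for 50% growth inhibition is given as GI50. Definition used: TGI = concentration required for complete inhibition of growth.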

Tests used:
Assay in all cases: NCI tumour cell line growth inhibition, 48 h
[1] = system: BT-549 breast
[2] = system: COLO 205 colon
[3] = system: HOP-62 NSCLC
[4] = system: IGROV1 ovarian
[5] = system: MDA-MB-435
[6] = system: NCI/ADR-RES ovarian
[7] = system: SK-OV-3 ovarian
[8] = system: UACC-257 melanoma
[9] = system: UO-31 renal
[10] = system: HOP-18 NSCLC
[11] = system: M19-MEL melanoma

Row | Structure (SMILES) | TGI [1] | TGI [2] | TGI [3] | TGI [4] | TGI [5] | TGI [6] | TGI [7] | TGI [8] | TGI [9] | TGI [10] | TGI [11] | GI50 [1] | GI50 [2] | GI50 [3] | GI50 [5] | GI50 [7] | GI50 [8] | GI50 [9] | GI50 [4] | GI50 [6]
1 | CC(C)(C)COS(=O)OCC(C)(C)C | > 100 µM | > 100 µM | > 100 µM | > 100 µM | > 100 µM | > 100 µM | > 100 µM | > 100 µM | > 100 µM |  |  |  |  |  |  |  |  |  |  | 
2 | COc1cc2cc[n+](C)c(Cc3ccc(Oc4cc(Cc5c6cc(OC)c(OC)cc6cc[n+]5C)ccc4OC)cc3)c2cc1OC | > 100 µM | > 100 µM | > 100 µM | > 100 µM | > 100 µM |  | > 100 µM | > 100 µM | > 100 µM |  |  |  |  |  |  |  |  |  |  | 
3 | CC(C)C(=O)CC(c1ccc(Br)cc1)N1N=C(C(C)C)CC1c1ccc(Br)cc1 (configuration not stated) |  | > 100 µM | > 100 µM |  |  |  | > 100 µM |  | > 100 µM | > 100 µM | > 100 µM |  |  |  |  |  |  |  |  | 
4 | CC(CCCCNC(=O)OC(C)(C)C)NC(=O)NC(C)CCCCNC(=O)OC(C)(C)C (configuration not stated) | > 100 µM | > 100 µM | > 100 µM | > 100 µM | > 100 µM | > 100 µM | > 100 µM | > 100 µM | > 100 µM |  |  |  |  |  |  |  |  |  |  | 
5 | C[C@]12O[C@@]3(C)O[C@@]3(C)[C@]3(C)O[C@]3(C)[C@@]1(C)O2 | > 100 µM | > 100 µM | > 100 µM |  | > 100 µM | > 100 µM | > 100 µM | > 100 µM | > 100 µM |  |  |  |  |  |  |  |  |  |  | 
6 | Cc1c2ccccc2cc2cccc[n+]12 | > 100 µM | > 100 µM | > 100 µM | > 100 µM | > 100 µM | > 100 µM |  | 43.3 µM | 83.5 µM |  |  |  |  |  |  |  |  |  |  | 
7 | Cc1ccc(S(=O)(=O)Nc2cc(=O)[nH]c3c2CCC3)cc1 | > 100 µM | > 100 µM | > 100 µM | > 100 µM | > 100 µM | > 100 µM | > 100 µM | > 100 µM | > 100 µM |  |  |  |  |  |  |  |  |  |  | 
8 | C/C=C/C(O)P(=O)(OC)OC (configuration not stated) | 1.8 µM | 0.366 µM | 2.23 µM | 1.01 µM | 0.802 µM |  | 2.51 µM | 0.792 µM | 0.334 µM |  |  |  |  |  |  |  |  |  |  | 
9 | c1ccc(C[N+]23C(CC[C@H]2c2ccccc2)CC[C@H]3c2ccccc2)cc1 (some centres not stated) |  | 31.2 µM | > 100 µM | > 100 µM | 54.8 µM |  | > 100 µM | 90.3 µM | > 100 µM |  |  |  |  |  |  |  |  |  |  | 
10 | Clc1cccc(/C=c2\nc(-c3ccccc3)n3c2nc2ccccc23)c1 | > 100 µM | > 100 µM | > 100 µM | > 100 µM | > 100 µM | > 100 µM | > 100 µM | > 100 µM | > 100 µM |  |  |  |  |  |  |  |  |  |  | 
11 | Nc1csc(-c2scc3c2OCCO3)c1N | 50.2 µM | 91.4 µM | 42.6 µM | 54.8 µM | 36.1 µM | 61.7 µM |  | 54.2 µM | 33.4 µM |  |  |  |  |  |  |  |  |  |  | 
12 | CCCC(=O)Nc1cc(/C=C/C(=O)N2CC(CCl)c3c2cc(OC(C)=O)c2[nH]cc(C)c32)n(C)c1 (configuration not stated) | 0.00227 µM | 4.32e-05 µM | 0.00389 µM | > 0.25 µM | 0.000686 µM | 0.0121 µM | 0.0691 µM |  |  |  |  |  |  |  |  |  |  |  |  | 
13 | C=CCc1cccc(/C(O)=C/C(=O)/C=C/c2ccccc2Cl)c1O | > 81.3 µM | > 58.7 µM | 61.2 µM | 29.6 µM | > 100 µM | 45.9 µM | 97.1 µM | > 70.4 µM | 32.7 µM |  |  |  |  |  |  |  |  |  |  | 
14 | CN(CCCN1CCCC1)CCCN(C)C(=O)Cc1ccc(Cl)c(Cl)c1 | 46.2 µM | 41.2 µM | 51 µM | 67.8 µM | 11.7 µM | > 100 µM | > 89.6 µM | 7.45 µM | 9.64 µM |  |  |  |  |  |  |  |  |  |  | 
15 | CC1(C)CC(C(=O)OCCCCCCCCCCC[P+](c2ccccc2)(c2ccccc2)c2ccccc2)C(C)(C)N1O (configuration not stated) | 1.05 µM | 0.33 µM | 0.904 µM |  | 1.33 µM |  | 0.711 µM | 0.847 µM | 2.29 µM |  |  | 0.116 µM | 0.168 µM | 0.319 µM | 0.274 µM | 0.248 µM | 0.248 µM | 0.972 µM |  | 
16 | NC(N)=N/N=C/c1c(-c2cccs2)nc2n1CCS2 | 44.8 µM | 40.4 µM |  | > 100 µM | 30.7 µM |  | > 100 µM | 44.8 µM | > 100 µM |  |  | 21.4 µM | 18.1 µM |  | 16.7 µM | > 100 µM | 22.3 µM | 70.4 µM | 34.9 µM | 
17 | CCOC(=O)c1cccc(N=Nc2ncc(/C=C/C(=O)OC)[nH]2)c1 | > 100 µM | 49 µM | 51.3 µM | 83.8 µM | > 100 µM | > 100 µM | > 100 µM | 46.4 µM | 72 µM |  |  |  |  |  |  |  |  |  |  | 
18 | CCOC(=O)/C=C/C1=C(Br)[C@@]2(C)CC[C@@H]3c4ccc(O)cc4CC[C@H]3[C@@H]2C1 | 27.3 µM | 32.2 µM | 27.5 µM | 24.7 µM | 28.8 µM | 27.9 µM | 28.7 µM | 26.8 µM | 30.4 µM |  |  |  |  |  |  |  |  |  |  | 
19 | CC12OC(C(=O)C13CCC3)C1C(=O)c3c(O)ccc(O)c3C(=O)C12 (configuration not stated) | 16.4 µM | > 100 µM | 15.6 µM | 11.4 µM | 5.81 µM | 2.63 µM | 54.3 µM | 7.81 µM | 9.06 µM |  |  | 5.97 µM | 3.14 µM | 3.01 µM | 2.3 µM | 18.6 µM | 1.53 µM | 2.82 µM | 3.3 µM | 0.69 µM
20 | COc1cc(/C=C2\CC3C4CC[C@H]5C[C@@H](O)CC[C@]5(C)C4CC[C@]3(C)\C2=N\O)cc(OC)c1OC (some centres not stated) | 42.1 µM | 29.4 µM | 38.9 µM | > 100 µM | 34.8 µM | 48.6 µM | 72.3 µM | 56.7 µM | 17.4 µM |  |  |  |  |  |  |  |  |  |  | 
